From patent publication US20130123618A1, “Imaging Agents” (priority 2008, published 2013)

What was measured:
9L Rat gliosarcoma cells = test: in vitro amino acid uptake in 9L cells; type: cell-based
Excerpt: (§1) Compounds have been evaluated in vitro for tumor binding specificity (i.e. uptake cells) using a variety of tumor cell lines available in the art, along with reference compounds such as Me-AlB and BCH. Detailed description of these assays can be found in Martarello et al. (2002) Journal of Medicinal Chemistry, 45:2250-2259 and McConathy et al. (2003) Nuclear Medicine and Biology, 30:477-490. These so called “amino acid uptake studies” are typically carried out with radiolabeled compounds in at least five phenotypically different human tumor cell lines (e.g., A549 lung carcinoma, MB468 breast carcinoma, DU145 prostate carcinoma-androgen independent, LnCap-androgen dependent, SKOV3 ovarian carcinoma, U87 glial blastoma, MIA PaCa-2 pancreas carcinoma, MDA MB231 breast carcinoma). These tumor cell lines can be grown either in vitro or in vivo with severe combined immunodeficiency (SCID) mice as a host. The afore-mentioned tumor cell lines are available at the Winship Cancer Institute of Emory University.
(§2) For the in vitro amino acid uptake studies, all cells can be grown to monolayer confluency in T-175 culture flasks [Corning, Corning, N.Y.] (approx. 1×10^8 cells/flask) in Dulbecco's Modified Eagle's Medium (DMEM) [Sigma, St. Louis, Mo.] in a humidified incubator (37° C., 5% CO2/95% air). […]
(§3) In the in vitro studies the uptake rate of each amino acid compound is measured in each tumor line, as well as the dominant transport mechanisms of each tumor cell line. After trypsinization, cells are resuspended in serum-free media, then counted on a hemocytometer, with viability assessed through Trypan blue staining. […] The vials are placed in a Cobra-II gamma counter (Packard, Meriden, Conn.), with the activity per cell number determined. […] Saline washes are performed as described above, and the filtered cells' radioactivity determined on the gamma counter. […]
(§4) The uptake of all compounds were measured in human and rat cancer cell lines and the dominant transport (“A” and “L”) mechanism of each culture were determined. […]

[1] = system: DU145 Human Prostate carcinoma cells; test: in vitro amino acid uptake in DU145 cells; type: cell-based
Excerpt: as §1, §2, §3, §4

[2] = system: A549 Human Lung adenocarcinoma cells; test: in vitro amino acid uptake in A549 cells; type: cell-based
Excerpt: as §1, §2, §3, §4

U87 Human Glioma cells = test: in vitro amino acid uptake in U87 cells; type: cell-based
Excerpt: as §1, §2, §3, §4

[3] = system: SKOV3 Human Ovarian carcinoma cells; test: in vitro amino acid uptake in SKOV3 cells; type: cell-based
Excerpt: as §1, §2, §3, §4

[4] = system: MDA MB468 Human Breast carcinoma cells; test: in vitro amino acid uptake in MDA MB468 cells; type: cell-based
Excerpt: as §1, §2, §3, §4

[5] = system: A549, human lung cancer cells implanted in flanks; test: tissue distribution in SCID mice bearing A549 tumors; type: in vivo; conditions: for tissue distribution, blood / tissue distribution, bone / tissue distribution, brain / tissue distribution, heart / tissue distribution, kidney / tissue distribution, liver / tissue distribution, lung / tissue distribution, muscle / tissue distribution, pancreas / tissue distribution, spleen / tissue distribution, tumor: A549 tumor-bearing SCID mice, tail vein, ave
Protocol: For the in vitro amino acid uptake studies, all cells can be grown to monolayer confluency in T-175 culture flasks [Corning, Corning, N.Y.] (approx. 1×10^8 cells/flask) in Dulbecco's Modified Eagle's Medium (DMEM) [Sigma, St. Louis, Mo.] in a humidified incubator (37° C., 5% CO2/95% air). Media are supplemented with 10% fetal calf serum [Hyclone, Logan, Utah], and antibiotics (10,000 U/ml penicillin and 10 mg/ml streptomycin) (Sigma, St. Louis, Mo.). For tissue culture passage, monolayer cells are detached by gentle trypsinization, resuspended in complete media, and split 1:10 into new T-flasks. Cultures are passaged weekly, and fed fresh media every 2 to 3 days. To initiate tumor growth in SCID mice, 1×10^6 cells are injected s.c. bilaterally into the flanks (inguinal region) of the recipient animals using a 1 ml syringe with a 27 gauge needle. Ex vivo experiments can be performed with animals containing tumors weighing between 500 mg and 1 g, as estimated by caliper measurement (tumor weight=(π/6)*abc, where a, b and c are the tumor length, width and height, respectively).
Tissue distribution of the compounds is measured in SCID mice (average weight, 20-25 g) bearing human tumors as follows. The candidate radioligands (20 uCi in 0.4 ml 0.9% NaCl) are injected into the tail vein of tumor-bearing mice. […] Tissues (blood, heart, liver, lungs, kidneys, bone, thyroid, muscle, brain and tumor) are excised, rinsed in saline, and blotted dry. The tissues are weighed, placed into 12×75 mm glass vials, the radioactivity determined with a gamma counter, and the percent dose/gram calculated. Total activities of blood and muscle are calculated by assuming that they account for 7% and 40% of the total body mass, respectively.
Tables 3-7 show the results of the biodistribution studies with the separate enantiomers of anti-2-[^18F]FACPC and racemic anti-2-[^18F]FACBC as a comparison in SCiD mice implanted in their flanks with A549, human lung cancer cells and DU145, human prostate cancer cells.

[6] = A549 cells implanted subcutaneously in flanks of SCID mice
[7] = 15 min, listed as Anti-2-[^18F]FACPC Enantiomer 1
[8] = 60 min, listed as Anti-2-[^18F]FACPC Enantiomer 1

NC1(C(=O)O)CCC1[18F] (racemic) [racemic anti-2-[^18F]FACBC]
% Dose uptake per 0.5 × 10−6 Cells (9L Rat gliosarcoma cells): 2.3 % Dose/0.5 × 10^−6
% Dose uptake per 0.5 × 10−6 Cells [1]: 6.4 % Dose/0.5 × 10^−6
% Dose uptake per 0.5 × 10−6 Cells [2]: 8.9 % Dose/0.5 × 10^−6
% Dose uptake per 0.5 × 10−6 Cells (U87 Human Glioma cells): 8.3 % Dose/0.5 × 10^−6
% Dose uptake per 0.5 × 10−6 Cells [3]: 2.2 % Dose/0.5 × 10^−6
% Dose uptake per 0.5 × 10−6 Cells [4]: 7.4 % Dose/0.5 × 10^−6
tissue distribution, blood ([5]; 15 min): 3.39 percent dose/gram
tissue distribution, bone ([5]; 15 min): 2.07 percent dose/gram
tissue distribution, brain ([5]; 15 min): 0.27 percent dose/gram
tissue distribution, heart ([5]; 15 min): 2.71 percent dose/gram
tissue distribution, kidney ([5]; 15 min): 10.12 percent dose/gram
tissue distribution, liver ([5]; 15 min): 3.15 percent dose/gram
tissue distribution, lung ([5]; 15 min): 4.23 percent dose/gram
tissue distribution, muscle ([5]; 15 min): 1.38 percent dose/gram
tissue distribution, pancreas ([5]; 15 min): 48.45 percent dose/gram
tissue distribution, spleen ([5]; 15 min): 7.91 percent dose/gram
tissue distribution, tumor ([5]; 15 min): 5.11 percent dose/gram
tissue distribution, blood ([5]; 30 min): 2.43 percent dose/gram
tissue distribution, bone ([5]; 30 min): 1.64 percent dose/gram
tissue distribution, brain ([5]; 30 min): 0.26 percent dose/gram
tissue distribution, heart ([5]; 30 min): 2.24 percent dose/gram
tissue distribution, kidney ([5]; 30 min): 5.48 percent dose/gram
tissue distribution, liver ([5]; 30 min): 2.70 percent dose/gram
tissue distribution, lung ([5]; 30 min): 3.03 percent dose/gram
tissue distribution, muscle ([5]; 30 min): 1.44 percent dose/gram
tissue distribution, pancreas ([5]; 30 min): 44.17 percent dose/gram
tissue distribution, spleen ([5]; 30 min): 5.03 percent dose/gram
tissue distribution, tumor ([5]; 30 min): 4.29 percent dose/gram
tissue distribution, blood ([5]; 60 min): 1.09 percent dose/gram
tissue distribution, bone ([5]; 60 min): 1.02 percent dose/gram
tissue distribution, brain ([5]; 60 min): 0.16 percent dose/gram
tissue distribution, heart ([5]; 60 min): 1.41 percent dose/gram
tissue distribution, kidney ([5]; 60 min): 2.25 percent dose/gram
tissue distribution, liver ([5]; 60 min): 1.47 percent dose/gram
tissue distribution, lung ([5]; 60 min): 1.40 percent dose/gram
tissue distribution, muscle ([5]; 60 min): 0.90 percent dose/gram
tissue distribution, pancreas ([5]; 60 min): 20.64 percent dose/gram
tissue distribution, spleen ([5]; 60 min): 2.86 percent dose/gram
tissue distribution, tumor ([5]; 60 min): 3.04 percent dose/gram
tissue distribution, blood ([5]; 120 min): 0.41 percent dose/gram
tissue distribution, bone ([5]; 120 min): 0.62 percent dose/gram
tissue distribution, brain ([5]; 120 min): 0.15 percent dose/gram
tissue distribution, heart ([5]; 120 min): 0.86 percent dose/gram
tissue distribution, kidney ([5]; 120 min): 1.03 percent dose/gram
tissue distribution, liver ([5]; 120 min): 0.59 percent dose/gram
tissue distribution, lung ([5]; 120 min): 0.56 percent dose/gram
tissue distribution, muscle ([5]; 120 min): 0.77 percent dose/gram
tissue distribution, pancreas ([5]; 120 min): 9.80 percent dose/gram
tissue distribution, spleen ([5]; 120 min): 1.48 percent dose/gram
tissue distribution, tumor ([5]; 120 min): 2.30 percent dose/gram
uptake of radioactivity in the tumors compared with muscle ([5]; A549 tumors, SCID mice, time points sampled post injection): greater than muscle

N[C@]1(C(=O)O)CCC[C@@H]1[18F] (single isomer, unassigned; enantiomer 1) [Enantiomer 1, anti-2-[^18F]FACPC]
% Dose uptake per 0.5 × 10−6 Cells (9L Rat gliosarcoma cells): 12 % Dose/0.5 × 10^−6
% Dose uptake per 0.5 × 10−6 Cells [1]: 8 % Dose/0.5 × 10^−6
% Dose uptake per 0.5 × 10−6 Cells [2]: 13 % Dose/0.5 × 10^−6
% Dose uptake per 0.5 × 10−6 Cells (U87 Human Glioma cells): 28 % Dose/0.5 × 10^−6
% Dose uptake per 0.5 × 10−6 Cells [3]: 7 % Dose/0.5 × 10^−6
% Dose uptake per 0.5 × 10−6 Cells [4]: 15 % Dose/0.5 × 10^−6
in vivo uptake compared with enantiomer 2 [5, 6]: greater uptake than enantiomer 2
in vivo uptake compared with racemic 2-[^18F]FACBC [5, 6]: significantly higher in vivo uptake than racemic 2-[^18F]FACBC
tissue distribution, blood [5, 7]: 3.98 percent dose/gram
tissue distribution, bone [5, 7]: 3.08 percent dose/gram
tissue distribution, brain [5, 7]: 0.81 percent dose/gram
tissue distribution, heart [5, 7]: 3.78 percent dose/gram
tissue distribution, kidney [5, 7]: 8.0 percent dose/gram
tissue distribution, liver [5, 7]: 4.01 percent dose/gram
tissue distribution, lung [5, 7]: 4.09 percent dose/gram
tissue distribution, muscle [5, 7]: 2.47 percent dose/gram
tissue distribution, pancreas [5, 7]: 57.83 percent dose/gram
tissue distribution, spleen [5, 7]: 12.52 percent dose/gram
tissue distribution, tumor [5, 7]: 9.77 percent dose/gram
tissue distribution, blood [5, 8]: 1.59 percent dose/gram
tissue distribution, bone [5, 8]: 2.43 percent dose/gram
tissue distribution, brain [5, 8]: 0.81 percent dose/gram
tissue distribution, heart [5, 8]: 2.49 percent dose/gram
tissue distribution, kidney [5, 8]: 4.02 percent dose/gram
tissue distribution, liver [5, 8]: 2.16 percent dose/gram
tissue distribution, lung [5, 8]: 2.07 percent dose/gram
tissue distribution, muscle [5, 8]: 2.43 percent dose/gram
tissue distribution, pancreas [5, 8]: 27.09 percent dose/gram
tissue distribution, spleen [5, 8]: 4.13 percent dose/gram
tissue distribution, tumor [5, 8]: 7.16 percent dose/gram
